# Laboratory results as given in PMC11641365, “Evaluation of In Vitro Biological Activity of Flavanone/Chromanone Derivatives: Molecular Analysis of Anticancer Mechanisms in Colorectal Cancer” (International Journal of Molecular Sciences, 2024).
# Tests used:
# [1] = test system: poly-ADP ribose polymerase (PARP); set-up: method as in PMID 35682740; details: previous work of the authors; cited from earlier work
# [2] = test system: human colon cancer cell lines: HCT 116, SW620, LoVo, Caco-2, and HT-29; experiment: MTT cell viability assay, statements across the panel; type: cell-based; details: Homo sapiens, range over the cancer cell lines, read-out: IC50 range against colon cancer cell lines
# Experimental: The cytotoxic activity of the 3-benzylideneflavanones, 3-benzylidenechromanones derivatives (compounds 1, 2, 3, 4, 5) and 5′-(3-methoxyphenyl)-2-phenyl-4′,5′-dihydro-4H-spiro[chromano-3,3′-pirazol]-4-one (compound 3a) was evaluated using the MTT assay (4,5-dimethylthiazol-2-yl)-2,5-diphenyltetrazoliumbromide), a colorimetric method that quantifies cell viability. […] These IC50 values were subsequently used for all experiments investigating the anticancer activity of the flavanone/chromanone derivatives in this study.
# (§1) Cell viability was determined using the metabolic microplate spectrophotometric assay with Methylthiazolyl diphenyltetrazolium bromide (MTT) (Sigma-Aldrich; St. Louis, MO, USA). The MTT method belongs to metabolic tests for determining cell viability and consists of measuring the absorbance of a violet solution of formazan, a product of the reduction of a water-soluble yellow MTT by oxidoreductive enzymes (mainly mitochondrial succinate dehydrogenase) of living cells. The amount of the reaction product (water-insoluble formazan crystals) is proportional to the number of living and metabolically active cells in the sample. In the case of damaged or dead cells, formazan is formed in smaller amounts, or it is not formed.
# The appropriate number of cells for a given cell line (6–8 × 10^3 cells/mL) were seeded onto colorless, sterile 96-well microplates (Nunc, Roskilde, Denmark) in the number appropriate for a given cell line. After 24 h of culture, various concentrations of the studied compounds (10^−7–10^−5 M) freshly prepared in DMSO (final concentration DMS < 0.1%) and diluted with complete culture medium were added and incubated in a CO2 incubator for 24 h. After this time, the medium was removed; the cell monolayer was washed twice with sterile PBS solution; and fresh culture medium was added to the microplate wells. After 48 h of cell culture, the MTT test was performed. A volume of 50 μL of tetrazolium salt solution (final concentration 0.05 mg/mL) was added to each microplate well. The microplate was placed for 3–4 h (depending on the cell line) in a CO2 incubator. After incubation, 100 μL of DMSO was added to the wells of the microplate to dissolve the purple formazan crystals formed in the living cell environment. The absorbance of the formazan solution, after gentle mixing, was read at a wavelength of λ = 580 nm and a reference wavelength of λ = 720 nm (Biotek Power Wave HT, Biotek Instruments, Winooski, VT, USA). The percentage of living cells was calculated by comparing the absorbance value of the tested samples with the absorbance value of the control (cells not treated with compounds). The absorbance of the control was taken as 100%. […] Moreover, cisplatin (Sigma-Aldrich, St. Louis, MO, USA) was used as a reference compound, and identical incubation conditions were used as described above.
# [3] = test system: HT-29; experiment: MTT cell viability assay; type: cell-based, human; details: Homo sapiens, HT-29, 24 h, HT-29, 24 h incubation with compound, mean ± SD of three experiments, read-out: Cytotoxic effect, IC50
# Experimental: (§2) The cytotoxic activity of the 3-benzylideneflavanones, 3-benzylidenechromanones derivatives (compounds 1, 2, 3, 4, 5) and 5′-(3-methoxyphenyl)-2-phenyl-4′,5′-dihydro-4H-spiro[chromano-3,3′-pirazol]-4-one (compound 3a) was evaluated using the MTT assay (4,5-dimethylthiazol-2-yl)-2,5-diphenyltetrazoliumbromide), a colorimetric method that quantifies cell viability.
# as §1
# (§3) The appropriate number of cells for a given cell line (6–8 × 10^3 cells/mL) were seeded onto colorless, sterile 96-well microplates (Nunc, Roskilde, Denmark) in the number appropriate for a given cell line. After 24 h of culture, various concentrations of the studied compounds (10^−7–10^−5 M) freshly prepared in DMSO (final concentration DMS < 0.1%) and diluted with complete culture medium were added and incubated in a CO2 incubator for 24 h. After this time, the medium was removed; the cell monolayer was washed twice with sterile PBS solution; and fresh culture medium was added to the microplate wells. After 48 h of cell culture, the MTT test was performed. A volume of 50 μL of tetrazolium salt solution (final concentration 0.05 mg/mL) was added to each microplate well. The microplate was placed for 3–4 h (depending on the cell line) in a CO2 incubator. After incubation, 100 μL of DMSO was added to the wells of the microplate to dissolve the purple formazan crystals formed in the living cell environment. The absorbance of the formazan solution, after gentle mixing, was read at a wavelength of λ = 580 nm and a reference wavelength of λ = 720 nm (Biotek Power Wave HT, Biotek Instruments, Winooski, VT, USA). The percentage of living cells was calculated by comparing the absorbance value of the tested samples with the absorbance value of the control (cells not treated with compounds). The absorbance of the control was taken as 100%.
# [4] = test system: Caco-2; experiment: MTT cell viability assay; type: cell-based, human; details: Homo sapiens, Caco-2, 24 h, 24 h incubation with compound, mean ± SD of three experiments, read-out: Cytotoxic effect, IC50
# Experimental: as §2, §1, §3
# [5] = test system: LoVo; experiment: MTT cell viability assay; type: cell-based; details: Homo sapiens, 24 h incubation with compound, mean ± SD of three experiments, read-out: Cytotoxic effect, IC50
# Experimental: as §2, §1, §3
# [6] = test system: HCT 116; experiment: MTT cell viability assay; type: cell-based; details: Homo sapiens, 24 h incubation with compound, mean ± SD of three experiments, read-out: Cytotoxic effect, IC50
# Experimental: as §2, §1, §3
# [7] = test system: SW620; experiment: MTT cell viability assay; type: cell-based; details: Homo sapiens, SW-620, 24 h incubation with compound, mean ± SD of three experiments, read-out: Cytotoxic effect, IC50
# Experimental: as §2, §1, §3
SMILES,Interaction with PARP [1],IC50 [2],IC50 [3],IC50 [4],IC50 [5],IC50 [6],IC50 [7]
"Cc1cccc(C2CC3(N=N2)C(=O)c2ccccc2OC3c2ccccc2)c1 (stereo not shown) [5′-(3-methylphenyl)-2-phenyl-4′,5′-dihydro-4H-spiro[chromano-3,3′-pirazol]-4-one]","effectively interacted with poly-ADP ribose polymerase (PARP), leading to its inactivation and degradation",,,,,,
CCN(CC)c1ccc(/C=C2/C(=O)c3ccccc3OC2c2ccccc2)cc1 (stereo not shown) [Compound 2],,70 to 210 µM,> 250 µM,> 250 µM,200 ± 6.6 µM,192 ± 3.4 µM,211 ± 2.9 µM
Cc1ccc(/C=C2/C(=O)c3ccccc3OC2c2ccccc2)cc1 (stereo not shown) [Compound 4],,70 to 210 µM,172 ± 4.2 µM,156 ± 5.2 µM,178 ± 4.4 µM,113 ± 5.1 µM,> 250 µM
